Data from paper PMC9888480, “Carboranyl-1,8-naphthalimide intercalators induce lysosomal membrane permeabilization and ferroptosis in cancer cell lines” (Journal of Enzyme Inhibition and Medicinal Chemistry, 2023).
“Also recorded” adds a separate entry of the source.

How the values were obtained:
[1] = test system: HepG2 cells; experiment: Real-time cell migration assay (xCELLigence); format: cell-based, human; conditions: one-fourth and half of IC50, 24 h pre-treatment
Description: Transwell cell migration experiments were performed using an xCELLigence RTCA Analyser (Roche, Switzerland) in CIM plates (ACEA Biosciences, San Diego, CA, USA). Each well consisted of an upper and a lower chamber separated by a microporous polyethylene terephthalate membrane containing randomly distributed 8-µm pores. Prior to the migration assay, the HepG2 cells (2 × 10^4) were seeded onto 48-well plates containing the growth medium (EMEM) and incubated until 70–80% confluency at 37 °C in a humidified atmosphere containing 5% CO2. […] Then, 160 µl of complete growth medium (supplemented with 10% FBS) was added to the lower chamber, and 50 µl of serum-free growth medium was added to the upper chambers of the CIM plate. The plates were incubated at 37 °C under 5% CO2 saturation for 1 h prior to insertion into the xCELLigence platform. To initiate a transwell migration experiment, the cells were detached with trypsin (Corning®), resuspended in the serum-free growth medium, and seeded in the upper chamber at a density of 1 × 10^4 cells in 100 µl per well that was previously treated with the compounds. The impedance of the microelectrode array was monitored and converted to CI. Normalisation values were recorded using the RTCA Software 1.2.1. Readouts were performed every 30 min for 72 h.

[2] = test system: HepG2 cells; experiment: Apoptosis/necrosis assay by flow cytometry (YO-PRO-1/PI); format: cell-based, human; conditions: HepG2, 24 h, YO-PRO1/PI; for early apoptotic cells: half and total IC50 concentrations tested
Description: Apoptosis/necrosis assay was carried out by double staining of cells with YO-PRO-1 (Thermo Fisher Scientific) and propidium iodide (PI, Sigma-Aldrich) fluorescent dyes. Briefly, HepG2 cells (2 × 10^5) were seeded onto 6-well plates. […] Subsequently, the cells were detached with trypsin (Thermo Fisher Scientific), washed twice with DPBS (1 ml) (Thermo Fisher Scientific), and stained with YO-PRO-1 (0.5 µM) and PI (10 µg/ml) according to the manufacturer’s protocol for 30 min at 37 °C in the dark. Immediately after staining, the cells were analysed with 488 nm excitation using a FACSCalibur flow cytometer (Becton Dickinson), and data were analysed using the FlowJo software (Becton Dickinson).

[3] = test system: ct-DNA; experiment: UV–vis spectra titration with ct-DNA (binding constant Kb); parameters: species or system calf; conditions: for bathochromic effect: UV–vis, addition of 1.25–15 µM ct-DNA to 10 µM compound; for Kb compared to that of mitonafide: mitonafide Kb 2.54 × 10^5
Description: The measurements were performed by adding aliquots of DMSO stock solution of the tested compounds to the buffer solution (pH 7.4, 20 mM, 50 mM NaCl, Tris–HCl buffer, DMSO content of the final solutions = 0.54–0.65%) to the final concentration 10 µM. The tested compounds were incubated for 5 min, with increasing concentrations ranging from 0 to 15 µM of ct-DNA at 37 °C. Then, the UV–vis absorption spectra between 300 and 500 nm were recorded using a GBC Cintra10 UV–VIS spectrometer equipped with a GBC Thermocell Peltier Power Supply with the use of a 1-cm-path-length cell. The binding constant was calculated according to the following equation[70]: A0/A−A0= εG/εH−G−εG+ εG/εH−G−εG × 1/Kb[DNA] where Kb is the binding constant; A0 and a are absorbances of the free tested compound and the apparent one; εG and εH–G are their coefficient, respectively; [DNA] is the concentration of DNA in base pairs. The slope to intercept ratio of the plot between A0/A − A0 and 1/[DNA] yielded the binding constant.

[4] = test system: ct-DNA; experiment: Melting temperature (Tm) measurements of ct-DNA; format: binding, calf; conditions: r = [compound]/[ct-DNA] = 0.3, cacodylate buffer pH 7.0; Tm of free ct-DNA 74 °C; error ±0.5 °C
Description: The measurements were carried out by adding aliquots of DMSO stock solution of the tested compounds to the buffer solution (pH 7.0, 20 mM, cacodylate buffer, DMSO content of the final solution = 0.33–0.39%). Tm curves were collected at r = 0.3 (r = [compound]/[ct-DNA]) to assure the dominant binding mode. Thermal melting curves were plotted considering the absorption change at 260 nm as a function of temperature using a GBC Cintra10 UV–VIS spectrometer (Dandenong, Australia) equipped with a GBC Thermocell Peltier Power Supply (Dandenong, Australia) with the use of a 1-cm-path-length cell. The absorbance of the samples was monitored at 260 nm from 35 to 95 °C with a heating rate of 1 °C/min. Tm values are the midpoints or the transition curves determined from the maximum of the first derivative. ΔTm values were calculated by subtracting the Tm of the free nucleic acid from the Tm of the sample. All ΔTm values reported in the study were measured in triplicate. The error in ΔTm was ±0.5 °C.

[5] = test system: ct-DNA; experiment: Circular dichroism (CD) measurements of ct-DNA; format: binding, calf; conditions: increasing concentration of conjugate, r = 0.1–0.5, cacodylate buffer pH 7.0
Description: The measurements were performed by adding aliquots of DMSO stock solution of the tested compounds to the buffer solution (pH 7.0, 20 mM, cacodylate buffer, DMSO content of the final solutions = 0.22–1.30%). Changes in the CD spectrum of ct-DNA upon the addition of compound were measured at different molar ratios r = [compound]/[ct-DNA]. CD spectra were recorded on a JASCO J-815 CD spectrometer with a JASCO PFD-425S Peltier thermostated cell holder (JASCO, Tokyo, Japan) by using a square quartz cuvette of path length 0.5 cm (0.5 ml) in the 230–400 nm region. The CD profiles reported were an average of three successive scans with a scan time of 200 nm per minute and an appropriately corrected baseline. Temperature was maintained at 20 °C during the experiment.

Substance | effect on migration of HepG2 cells (slope of cell index, first 24 h) [1] | early apoptotic cells [2] [%] | bathochromic effect [3] [nm] | ΔTm ct-DNA [4] [°C] | change in the CD spectra of ct-DNA [5] | Kb compared to that of mitonafide [3] | necrosis (PI positive cells) [2] [%]
4-[(6-[(1,2-Dicarba-closo-dodecaborane-1-yl)ethylamino]hexyl)amino]-N-[2-(dimethylamino)ethyl]-3-nitro-1,8-naphthalimide [Compound 34] | highest influence on the migration activity | 9.12 | 9 | 11.67 | remarkably disturbed |  | 
4-[(6-[(1,2-Dicarba-closo-dodecaborane-1-yl)ethylamino]hexyl)amino]-3-nitro-N-[2-(N-pyrrolidinyl)ethyl]-1,8-naphthalimide [Compound 36] |  | 12.55 | 7 | 10.00 | disturbed | similar | 
4-[(6-[(1,7-Dicarba-closo-dodecaborane-1-yl)ethylamino]hexyl)amino]-N-[2-(dimethylamino)ethyl]-3-nitro-1,8-naphthalimide [Compound 35] | highest influence on the migration activity; also recorded: highest impairment | 6.7 | 10 | 13.00 | remarkably disturbed | approximately 1.5 fold | 55.75
4-[(6-[(1,7-Dicarba-closo-dodecaborane-1-yl)ethylamino]hexyl)amino]-3-nitro-N-[2-(N-pyrrolidinyl)ethyl]-1,8-naphthalimide [Compound 37] | highest influence on the migration activity | 12.56 | 8 | 13.00 | remarkably disturbed |  | 
